Paper PMC10310036, “Variability in phenylalanine side chain conformations facilitates broad substrate tolerance of fatty acid binding in cockroach milk proteins” (PLOS ONE, 2023)
Read-outs that look alike come from different tables or passages of the source. One block for each compound: values may come before it.

Experiments:
Test in all cases: intrinsic tryptophan fluorescence titration
[1] = target: T1, Lili-Mip1 (Diploptera punctata, UniProt Q6SVB6); assay type: binding
T1 construct: recombinant, codon-optimised synthetic gene, secreted from S. cerevisiae FGY217 with Ost1 or alpha-factor signal; untagged pYES2 version likely (also made with C-terminal His tag)
T1 sequence (Q6SVB6 entry or part of it): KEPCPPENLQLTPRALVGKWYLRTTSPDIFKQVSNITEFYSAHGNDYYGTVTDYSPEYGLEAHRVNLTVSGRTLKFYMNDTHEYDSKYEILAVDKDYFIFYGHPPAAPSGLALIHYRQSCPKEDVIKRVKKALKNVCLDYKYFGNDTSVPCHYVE
Source text: intrinsic tryptophan fluorescence titration on Lili-Mip1

[2] = target: T2, Lili-Mip2 (Diploptera punctata, UniProt Q6SVB5); assay type: binding
T2 construct: recombinant, codon-optimised synthetic gene, secreted from S. cerevisiae FGY217 with Ost1 or alpha-factor signal; untagged pYES2 version likely (also made with C-terminal His tag)
T2 sequence (Q6SVB5 entry or part of it): as the sequence (Q6SVB6 entry or part of it) above, with K87E, V125I, A132S, P150H, H152R, V154L counted along it
Source text: intrinsic tryptophan fluorescence titration on Lili-Mip2

[3] = target: T3, Lili-Mip3; assay type: binding, Diploptera punctata; settings: 50 mM sodium acetate pH 4.8, 100 mM NaCl, 25°C, delipidated protein
T3 construct: recombinant, codon-optimised synthetic gene, secreted from S. cerevisiae FGY217 with Ost1 or alpha-factor signal; untagged pYES2 version likely (also made with C-terminal His tag)
Source text: intrinsic tryptophan fluorescence titration on Lili-Mip3

[4] = read-out: Myristoleic acid (14:1)
[5] = read-out: Palmitoleic acid (16:1)

Structure (SMILES): CCCCC/C=C\C/C=C\CCCCCCCC(=O)O [Linoleic acid]
Kd ([1]; read-out: Linoleic acid (18:2)): 1560 ± 330 nM | Kd ([2]; read-out: Linoleic acid (18:2)): 2190 ± 1410 nM | Kd ([3]; read-out: Linoleic acid (18:2)): 270 ± 80 nM

Structure (SMILES): CCCCCCCCCCCCCC(=O)O [Myristic acid]
Kd ([1]; read-out: Myristic acid (14:0)): 1960 ± 830 nM | Kd ([3]; read-out: Myristic acid (14:0)): 1600 ± 510 nM

Structure (SMILES): CCCC/C=C\CCCCCCCC(=O)O [Myristoleic acid]
Kd [1, 4]: 2060 ± 420 nM | Kd [2, 4]: 2780 ± 500 nM | Kd [3, 4]: 680 ± 490 nM

More lines, now with the values ahead:

Kd ([1]; read-out: Oleic acid (18:1)): 930 ± 310 nM | Kd ([2]; read-out: Oleic acid (18:1)): 1710 ± 1190 nM | Kd ([3]; read-out: Oleic acid (18:1)): 240 ± 110 nM
Structure (SMILES): CCCCCCCC/C=C\CCCCCCCC(=O)O [Oleic acid]

Kd ([1]; read-out: Palmitic acid (16:0)): 1760 ± 880 nM | Kd ([2]; read-out: Palmitic acid (16:0)): 1410 ± 880 nM | Kd ([3]; read-out: Palmitic acid (16:0)): 820 ± 610 nM
Structure (SMILES): CCCCCCCCCCCCCCCC(=O)O [Palmitic acid]

Kd [1, 5]: 1540 ± 910 nM | Kd [2, 5]: 2300 ± 1320 nM | Kd [3, 5]: 880 ± 620 nM
Structure (SMILES): CCCCCC/C=C\CCCCCCCC(=O)O [Palmitoleic acid]

Kd ([1]; read-out: Stearic acid (18:0)): 1710 ± 560 nM | Kd ([2]; read-out: Stearic acid (18:0)): 2320 ± 1320 nM | Kd ([3]; read-out: Stearic acid (18:0)): 1780 ± 1740 nM
Structure (SMILES): CCCCCCCCCCCCCCCCCC(=O)O [Stearic acid]
